The target of the assay is prenyl cysteine methyltransferase (Bos taurus, UniProt A0AAA9SD88). As to the kind of experiment: Prenyl cysteine methyltransferase assay (3H-methyl transfer from S-adenosylmethionine to AFC, vapor-phase equilibrium). Format: biochemical. The settings on record: 5.0 μM (3H-methyl)-S-adenosylmethionine, 83,000×g pellet of bovine brain, 37° C., pH 7.9. The procedure:
To a putative source of prenyl cysteine methyl transferase enzyme is added 50 μM of N-acetyl-S-farnesyl cysteine ("AFC") and 5.0 μM (^3 H-methyl)-S-adenosylmethionine (specific activity 16,000 cpm/pmol) in 100 mM tris-HCl, 1 mM EDTA, 1 mM DTT, pH 7.9 in a final volume of 150 μL. After heating the mixture at 37° C. for 5 to 25 minutes, 25 μL of the mixture is removed and added to 250 μL of heptane. The mixture is immediately vortexed to extract N-acetyl-S-farnesyl cysteine methyl ester into the organic phase. The mixture then is centrifuged for 30 seconds, and placed in a dry ice/acetone bath to quench the reaction. The heptane layer (200 μL) is removed and added to a 1.5 mL capless Eppendorf microcentrifuge tube. The heptane is evaporated in a Speedvac, and 25 μL of 1M sodium hydroxide is added to the remaining residue. The ^3 H-methanol produced from the hydrolysis of the ^3 H-methylesters is assayed by the vapor-phase equilibrium procedure as described in Stock, J. B., et al. (1984) Methods Enzymology, 106, 310-321 which is incorporated herein by reference.
A sample of 0.003 grams of 83,000×g. pellet from homogenized bovine brain after previous removal of the 14,000×g. pellet was subjected to the foregoing assay.

Sequence of prenyl cysteine methyltransferase (A0AAA9SD88 1-284): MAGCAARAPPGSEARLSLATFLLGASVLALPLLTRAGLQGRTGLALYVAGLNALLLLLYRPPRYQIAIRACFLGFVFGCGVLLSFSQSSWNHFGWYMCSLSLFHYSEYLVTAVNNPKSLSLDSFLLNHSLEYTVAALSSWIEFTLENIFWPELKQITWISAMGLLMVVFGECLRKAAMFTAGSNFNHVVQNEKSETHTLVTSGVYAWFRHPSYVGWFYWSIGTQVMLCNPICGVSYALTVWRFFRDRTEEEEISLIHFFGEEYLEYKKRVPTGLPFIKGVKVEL

As for `CC(=O)N[C@@H](CSC/C=C(\C)CC/C=C(\C)CCC=C(C)C)C(=O)O` [AFC, N-Acetyl, S-trans,trans-farnesyl-L-cysteine], the “cpm (w/50 μM AFC)” value (5 min) is recorded as 199.5 cpm; the “cpm (w/50 μM AFC)” value (10 min) is 343.5 cpm; the “cpm (w/50 μM AFC)” value (15 min) amounted to 393.5 cpm; the “cpm (w/50 μM AFC)” value (20 min) is 543.0 cpm; the “cpm (w/50 μM AFC)” value (25 min) was 616.0 cpm.

(Values after patent US5043268A, “Substrates and inhibitors for prenyl cysteine methyltransferase enzymes” (The Trustees of Princeton University, priority 1990, dated 1991).)
